Data published in EP0155825A2, “Novel choline derivatives” (NITTO BOSEKI CO., LTD., priority 1984, dated 1985).

Test: Stability against non-enzymatic hydrolysis in buffer
Format: physicochemical
Details: 1/15 molar phosphate buffer (pH 8.20) at 37°C for 90 minutes

C[N+](C)(C)CCOC(=O)c1ccc(O)c(O)c1.[I-] [DHBCI, 3,4-dihydroxybenzoylcholine iodide]
non-enzymatic hydrolysis: substantially no hydrolysis
